In ChEMBL document CHEMBL1156092, “Anthranilic sulfonamide CCK1/CCK2 dual receptor antagonists II: tuning of receptor selectivity and in vivo efficacy” (Bioorg Med Chem Lett, 2009):

Columns and labels:
Homo sapiens = species on record: Homo sapiens; assay: Ratio of pKi for human CCK-1R to pKi for human CCK-2R
[1] = Apparent permeability from basolateral to apical side in human Caco-2 cells; assay type: ADME, cell-based
[2] = Volume of distribution at steady state in rat at 2 umol/kg, iv and 2 umol/kg, po; assay type: ADME, organism-based; conditions: in vivo, read-out: Vdss
[3] = Plasma half life in rat at 2 umol/kg, iv; assay type: ADME, organism-based
[4] = Apparent permeability from apical to basolateral side in human Caco-2 cells; assay type: ADME, cell-based
[5] = Oral bioavailability in rat at 2 umol/kg; assay type: ADME, organism-based; conditions: in vivo
[6] = Metabolic stability in human liver microsomes assessed as compound remaining after 15 mins; assay type: ADME, Microsome; conditions: read-out: Stability
[7] = Plasma clearance in rat at 2 umol/kg, iv; assay type: ADME, organism-based
Rattus norvegicus [8] = assay: Inhibition of CCK8s-stimulated plasma amylase release in rat assessed as reduction in plasma amylase at 30 umol/kg, po dosed 60 mins before 10 nmol/kg, sc CCK8s challenge and measured after 6 hrs; assay type: functional
Rattus norvegicus [9] = assay: Inhibition of iv dosed pentagastrin-stimulated gastric acid secretion in iv dosed anesthetized Ghosh and Schild rat model assessed as decrease in gastric lumen perfusate pH; assay type: functional, Stomach; conditions: for ED50: Rattus norvegicus, Stomach, iv
[10] = molecular target: T1, Gastrin/cholecystokinin type B receptor (Homo sapiens, UniProt P32239); assay: Displacement of [125I]-CCK-8S from human CCK-2R after 100 mins by liquid scintillation counting
T1 sequence (P32239 whole entry): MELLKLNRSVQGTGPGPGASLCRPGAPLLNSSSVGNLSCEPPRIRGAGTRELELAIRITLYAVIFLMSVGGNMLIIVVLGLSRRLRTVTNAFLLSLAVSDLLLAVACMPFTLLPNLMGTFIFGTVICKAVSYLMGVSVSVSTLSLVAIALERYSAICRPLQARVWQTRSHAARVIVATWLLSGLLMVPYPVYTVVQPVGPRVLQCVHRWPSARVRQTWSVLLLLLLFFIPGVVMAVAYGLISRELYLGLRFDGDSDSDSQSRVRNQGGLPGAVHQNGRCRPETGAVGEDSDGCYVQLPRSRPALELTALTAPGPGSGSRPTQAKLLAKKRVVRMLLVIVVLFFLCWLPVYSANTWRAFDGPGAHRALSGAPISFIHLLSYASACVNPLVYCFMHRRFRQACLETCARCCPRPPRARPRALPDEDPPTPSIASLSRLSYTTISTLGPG

| Structure (SMILES) | Ratio pKi (Homo sapiens) | Papp B→A [1] [×10⁻⁶ cm/s] | Vd [2] [L/kg] | half-life [3] [h] | Papp A→B [4] [×10⁻⁶ cm/s] | bioavailability [5] [%] | remaining at 0.25 h [6] [%] | clearance [7] [mL/min/kg] | inhibition (INH) (Rattus norvegicus [8]) [%] | pED50 (Rattus norvegicus [9]) | ED50 (Rattus norvegicus [9]) [µmol/kg] | Ki [10] [nM] |
| --- | --- | --- | --- | --- | --- | --- | --- | --- | --- | --- | --- | --- |
| O=C(N[C@@H](Cc1ccc(F)c(Br)c1)C(=O)O)c1ccc(Cl)cc1NS(=O)(=O)c1cccc2nccnc12 | 1.6 | 4.76 | 0.145 | 1.5 | 0.04 | 4 | 50 | 4.1 |  |  |  |  |
| O=C(N[C@@H](Cc1ccc(F)c(Br)c1)C(=O)O)c1ccc(Br)cc1NS(=O)(=O)c1cccc2nsnc12 | 1.6 | 0.34 |  |  | 0.05 |  | 47 |  |  |  |  |  |
| O=C(N[C@@H](Cc1ccc(F)c(Br)c1)C(=O)O)c1ccc(Cl)cc1NS(=O)(=O)c1cccc2nsnc12 | 1.4 | 1.25 | 0.105 | 1.3 | 0.04 | 11 | 65 | 3.1 |  |  |  |  |
| O=C(N[C@@H](Cc1ccc(Cl)c(Br)c1)C(=O)O)c1ccc(Br)cc1NS(=O)(=O)c1cccc2nccnc12 | 1 | 1.97 |  |  | 0.1 |  | 69 |  | 65 |  |  |  |
| O=C(N[C@@H](Cc1ccc(F)c(Br)c1)C(=O)O)c1ccc(Br)cc1NS(=O)(=O)c1cccc2nccnc12 | 1.8 | 4.36 |  |  | 0.03 |  | 54 |  | 67 |  |  |  |
| O=C(N[C@@H](Cc1ccc(F)c(Br)c1)C(=O)O)c1cc(Cl)c(Cl)cc1NS(=O)(=O)c1cccc2nccnc12 | 1.4 | 1.05 | 0.129 | 7 | 0.1 | 9 | 65 | 2 | -5 |  |  |  |
| O=C(N[C@@H](Cc1ccc(F)c(Br)c1)C(=O)O)c1cc(Cl)c(Cl)cc1NS(=O)(=O)c1cccc2nsnc12 |  | 0.37 | 0.203 | 6.2 | 0.02 | 21 | 76 | 2.6 | 67 | 5.8 | 1.6 |  |
| O=C(N[C@@H](Cc1ccc(F)c(Br)c1)C(=O)O)c1ccc(I)cc1NS(=O)(=O)c1cccc2nsnc12 | 1.5 |  | 0.215 | 6.4 |  | 14 |  | 3.1 |  |  |  |  |
| O=C(N[C@@H](Cc1ccc(Cl)c(Br)c1)C(=O)O)c1ccc(Br)cc1NS(=O)(=O)c1cccc2nsnc12 | 1 | 0.19 |  |  | 0.1 |  | 61 |  |  |  |  |  |
| O=C(N[C@@H](Cc1ccc(Cl)c(Cl)c1)C(=O)O)c1ccc(I)cc1NS(=O)(=O)c1cccc2nsnc12 | 0.9 |  |  |  |  |  |  |  | 45 | 5.1 | 7.9 | 25.1 |
